{"source": "patent US20210267978A1", "about": "“NANOPARTICLE FORMULATIONS OF IKE AND METHODS OF USE THEREOF” (The Trustees of Columbia University in the City of New York, priority 2018, published 2021)", "assay_in_all_cases": "DLBCL cell line sensitivity to IKE (CellTiter-Glo viability, 24 h)", "assay_type_in_all_cases": "cell-based", "key": {"SUDHL 5": {"tested_on": "SUDHL 5", "details": "Homo sapiens, SU-DHL-5; SUDHL 5, 24 hours; read-out: cell line sensitivity to IKE (IC50 class)", "procedure": "(§1) DLBCL cells were plated at 10,000 cells per well in white 384-well plates (32 μL per well) in technical duplicates and incubated overnight. The cells were then treated with 8 μL medium containing a two-fold dilution series of vehicle (DMSO), IKE (starting from 100 μM) with or without Fer-1 (starting from 200 μM). After 24 h incubation, 40 μL of 50% CellTiter-Glo (Promega) 50% cell culture medium was added to each well and incubated at room temperature with shaking for 15 min. Luminescence was measured using a Victor X5 plate reader (PerkinElmer). All cell viability data were normalized to the DMSO vehicle condition. Experiments were performed three independent times with different passages for each cell line."}, "LY 8": {"tested_on": "LY 8", "details": "LY 8, 24 hours; read-out: cell line sensitivity to IKE (IC50 class)", "procedure": "as §1"}, "KARPAS 422": {"tested_on": "KARPAS 422", "details": "KARPAS 422, 24 hours", "procedure": "as §1"}, "SUDHL 6": {"tested_on": "SUDHL 6", "details": "Homo sapiens, SU-DHL-6; SUDHL 6, 24 hours; read-out: cell line sensitivity to IKE (IC50 class)", "procedure": "as §1"}, "SUDHL 16": {"tested_on": "SUDHL 16", "details": "Homo sapiens, SU-DHL-16; SUDHL 16, 24 hours; read-out: cell line sensitivity to IKE (IC50 class)", "procedure": "as §1"}, "U2932": {"tested_on": "U2932", "details": "Homo sapiens; U2932, 24 hours; read-out: cell line sensitivity to IKE (IC50 class)", "procedure": "as §1"}, "RIVA": {"tested_on": "RIVA", "procedure": "as §1"}, "SUDHL 7": {"tested_on": "SUDHL 7", "details": "SUDHL 7, 24 hours; read-out: cell line sensitivity to IKE (IC50 class)", "procedure": "as §1"}, "LY 7": {"tested_on": "LY 7", "details": "LY7; LY 7, 24 hours; read-out: cell line sensitivity to IKE (IC50 class)", "procedure": "as §1"}, "WSU-NHL": {"tested_on": "WSU-NHL", "procedure": "as §1"}, "SUDHL 10": {"tested_on": "SUDHL 10", "details": "Homo sapiens, SU-DHL10; SUDHL 10, 24 hours; read-out: cell line sensitivity to IKE (IC50 class)", "procedure": "as §1"}, "SUDHL 2": {"tested_on": "SUDHL 2", "details": "Homo sapiens, SU-DHL-2; SUDHL 2, 24 hours; read-out: cell line sensitivity to IKE (IC50 class)", "procedure": "as §1"}, "SUDHL 9": {"tested_on": "SUDHL 9", "details": "SUDHL 9, 24 hours", "procedure": "as §1"}, "DOHH 2": {"tested_on": "DOHH 2", "details": "Homo sapiens; DOHH 2, 24 hours; read-out: cell line sensitivity to IKE (IC50 class)", "procedure": "as §1"}, "A3/KAW": {"tested_on": "A3/KAW", "details": "read-out: cell line sensitivity to IKE (IC50 class)", "procedure": "as §1"}, "SUDHL 8": {"tested_on": "SUDHL 8", "details": "SUDHL 8, 24 hours", "procedure": "as §1"}, "U937": {"tested_on": "U937", "details": "Homo sapiens, U-937; U937, 24 hours; read-out: cell line sensitivity to IKE (IC50 class)", "procedure": "as §1"}}}
{"molecule": "CC(C)Oc1ccc(C(=O)Cn2ccnc2)cc1-n1c(CN2CCN(C(=O)COc3ccc(Cl)cc3)CC2)nc2ccccc2c1=O", "note": "[IKE, Imidazole ketone erastin]", "values": [{"measurement": "IC50", "setting": "SUDHL 5", "value": "< 100", "unit": "nM"}, {"measurement": "IC50", "setting": "LY 8", "value": "< 100", "unit": "nM"}, {"measurement": "cell line sensitivity to IKE (IC50 class)", "setting": "KARPAS 422", "value": "moderately resistant"}, {"measurement": "IC50", "setting": "SUDHL 6", "value": "< 100", "unit": "nM"}, {"measurement": "IC50", "setting": "SUDHL 16", "value": "< 100", "unit": "nM"}, {"measurement": "IC50", "setting": "U2932", "value": "> 10000", "unit": "nM"}, {"measurement": "cell line sensitivity to IKE (IC50 class)", "setting": "RIVA", "value": "moderately resistant"}, {"measurement": "IC50", "setting": "SUDHL 7", "value": "> 10000", "unit": "nM"}, {"measurement": "IC50", "setting": "LY 7", "value": "> 10000", "unit": "nM"}, {"measurement": "cell line sensitivity to IKE (IC50 class)", "setting": "WSU-NHL", "value": "moderately resistant"}, {"measurement": "IC50", "setting": "SUDHL 10", "value": "< 100", "unit": "nM"}, {"measurement": "IC50", "setting": "SUDHL 2", "value": "< 100", "unit": "nM"}, {"measurement": "cell line sensitivity to IKE (IC50 class)", "setting": "SUDHL 9", "value": "moderately resistant"}, {"measurement": "IC50", "setting": "DOHH 2", "value": "< 100", "unit": "nM"}, {"measurement": "IC50", "setting": "A3/KAW", "value": "> 10000", "unit": "nM"}, {"measurement": "cell line sensitivity to IKE (IC50 class)", "setting": "SUDHL 8", "value": "moderately resistant"}, {"measurement": "IC50", "setting": "U937", "value": "> 10000", "unit": "nM"}]}
